{"source": "patent US20250367182A1", "about": "“METHOD FOR INDUCING IN-SITU REGENERATION OF MAMMAL AND USE THEREOF” (INSTITUTE OF ZOOLOGY, CHINESE ACADEMY OF SCIENCES, priority 2022, published 2025)", "key": {"[1]": {"tested_on": "2 mm diameter mouse ear hole", "test": "2 mm ear hole trauma mouse model (ear hole closure)", "set-up": "species or system C57BL/6 mice", "settings": "in vivo"}, "[2]": {"tested_on": "STING-TBK1-IRF3 signaling pathway / ISG genes in mouse primary fibroblasts and macrophages", "test": "CHX-induced ISG gene expression in primary cells (RNA-seq, Ribo-seq, qPCR, immunofluorescence)", "type": "cell-based"}, "[3]": {"tested_on": "bleomycin-induced lung fibrosis injury", "test": "bleomycin-induced chronic injury model of lung fibrosis", "type": "in vivo, C57B1/6 mice"}, "scalded skin": {"tested_on": "scalded skin", "test": "mouse skin scald model", "type": "in vivo, mice", "settings": "CHX 20 mg/kg"}, "[4]": {"tested_on": "4 mm diameter mouse ear hole", "set-up": "species or system mice", "settings": "in vivo"}, "[5]": {"tested_on": "protein translation process"}, "[6]": {"settings": "CHX 20 mg/kg, lung function testing"}}, "note": "“Also recorded” adds a separate entry of the source. Like-named read-outs stand apart in the source and are kept apart here.", "data": [{"compound": "COc1ccc(C[C@H]2NC[C@H](O)[C@H]2OC(C)=O)cc1", "note": "[Ani, Anisomycin]", "values": [{"measurement": "healing of the 2 mm ear hole", "setting": "[1]", "value": "significantly promote the healing of the ear hole"}]}, {"compound": "C[C@@H]1C[C@@H]([C@H](O)CC2CC(=O)NC(=O)C2)C(=O)[C@@H](C)C1", "note": "[CHX, 4-((R)-2-((1S,3S,5S)-3,5-dimethyl-2-oxocyclohexyl)-2-hydroxyethyl)piperidine-2,6-dione]", "values": [{"measurement": "HE staining of auricle tissue", "setting": "[1]", "value": "healed the tissue after damage and formed granulation tissue"}, {"measurement": "HE staining of auricle tissue: healing of trauma", "setting": "[1]", "value": "completely healed"}, {"measurement": "HE staining of wound site: regenerated tissues", "setting": "[1]", "value": "regeneration of tissues and tissue derivatives such as hair follicles, glands, cartilage, muscles and blood vessels"}, {"measurement": "KI67 immunohistochemical staining of auricle tissue (basal cells)", "setting": "[1]", "value": "expressed a large amount of KI67"}, {"measurement": "closure of 2 mm ear hole wound", "setting": "[1]", "value": "completely closed"}, {"measurement": "dose dependence of promotion of 2 mm ear hole healing", "setting": "[1]", "value": "dose-dependent"}, {"measurement": "healing condition of 2 mm ear hole (photograph)", "setting": "[1]", "value": "completely closed"}, {"measurement": "healing effect compared with Ani", "setting": "[1]", "value": "better"}, {"measurement": "healing effect with different administration manners", "setting": "[1]", "value": "healing effects were produced; also recorded: different manners of administration had the effect of promoting regeneration"}, {"measurement": "healing of the 2 mm ear hole", "setting": "[1]", "value": "significantly promote the healing of the ear hole"}, {"measurement": "closure of 2 mm diameter ear holes", "setting": "[1]; ip", "value": "promoted the closure"}, {"measurement": "expression of classical ISGs (Mx2, Ifit1, Cxcl10, Ifih1), qPCR", "setting": "[2]; CHX, fibroblasts and macrophages", "value": "upregulate the expression of classical ISGs"}, {"measurement": "STING-TBK1-IRF3 signaling (perinuclear STING, nuclear IRF3), immunofluorescence", "setting": "[2]; CHX, in vitro", "value": "activated ISGs by activating the STING-TBK1-IRF3 signaling pathway"}, {"measurement": "number of genes upregulated at both transcriptional and translational levels in both cell types", "setting": "[2]; CHX, mouse primary fibroblasts and macrophages, RNA-seq and Ribo-seq", "value": 32, "unit": "genes"}, {"measurement": "survival rate", "setting": "[3]; CHX 20 mg/kg i.p. every two days from 2 days after surgery, 18th day of treatment", "value": 75, "unit": "%"}, {"measurement": "body weight loss", "setting": "[3]; CHX 20 mg/kg, ***P<0.001", "value": "significantly inhibited the body weight loss"}, {"measurement": "lung fibrosis (HE staining and Sirius red staining)", "setting": "[3]; CHX 20 mg/kg, after 14 days of treatment", "value": "significantly inhibited"}, {"measurement": "body weight", "setting": "[3]; CHX 20 mg/kg, after 15 days", "value": "~85", "unit": "%"}, {"measurement": "respiratory rate", "setting": "[3]; [6]", "value": "significantly maintained normal"}, {"measurement": "tidal volume", "setting": "[3]; [6]", "value": "significantly maintained normal"}, {"measurement": "tissue integrity and fibrosis (HE staining)", "setting": "[3]; CHX administration started 9 days after bleomycin injury (more severe model)", "value": "significantly restored tissue integrity and reduced fibrosis"}, {"measurement": "development-related genes (blood vessels, circulatory system), RNA-Seq", "setting": "[3]; CHX-treated group", "value": "upregulated"}, {"measurement": "genes related to respiratory system development, RNA-Seq", "setting": "[3]; CHX-treated group", "value": "promoted the upregulation"}, {"measurement": "fibrosis-related genes (extracellular matrix, collagen), RNA-Seq", "setting": "[3]; CHX-treated group vs control after injury", "value": "significantly downregulate"}, {"measurement": "collagen accumulation (Sirius red staining)", "setting": "scalded skin", "value": "reduced collagen accumulation"}, {"measurement": "skin tissue regeneration (histochemical staining)", "setting": "scalded skin", "value": "significantly promoted the regeneration of epidermis, hair follicles, glands, dermis, and blood vessels"}, {"measurement": "scar area", "setting": "scalded skin; after 40 days of administration", "value": "significantly reduced scar area"}, {"measurement": "wound area of 4 mm ear hole", "setting": "[4]", "value": "significantly reduced"}]}, {"compound": "Cc1nn(CC(F)(F)F)cc1Nc1ncc(Br)c(NCc2ccc(S(N)(=O)=O)cc2)n1", "note": "[GSK8612]", "values": [{"measurement": "CHX-induced ear hole regeneration", "setting": "[1]", "value": "significantly inhibited"}, {"measurement": "expression of ISG genes induced by CHX", "setting": "[2]; GSK8612 5 μM, CHX 1 μg/ml", "value": "significantly inhibited the expression of ISG genes"}]}, {"compound": "O=C1N[C@@H]2C(=C[C@H](O)[C@@H](O)[C@H]2O)c2cc3c(c(O)c21)OCO3", "note": "[Narciclasine]", "values": [{"measurement": "healing of 2 mm ear holes", "setting": "[1]", "value": "significantly promote the healing of 2 mm ear holes"}, {"measurement": "regenerated tissues in closed ear holes (histochemical and Masson staining)", "setting": "[1]", "value": "could regenerate tissues such as hair follicles, glands, cartilage and muscles, and tissue derivatives"}, {"measurement": "inhibition of protein translation (Puromycin incorporation)", "setting": "[5]; CHX as control", "value": "could significantly inhibit the protein translation process"}]}, {"compound": "O=C1N[C@H]2[C@H](O)[C@H](O)[C@@H](O)[C@H](O)[C@@H]2c2cc3c(c(O)c21)OCO3", "note": "[Pancratistatin]", "values": [{"measurement": "closure of 2 mm ear hole", "setting": "[1]", "value": "completely closed"}, {"measurement": "nature of the closure (HE and Masson staining)", "setting": "[1]", "value": "identified as a regeneration event"}, {"measurement": "inhibition of protein translation (Puromycin incorporation)", "setting": "[5]", "value": "could significantly inhibit the protein translation process"}]}]}
